Measurements: publication PMC10302146, “Dual Anta-Inhibitors Targeting Protein Kinase CK1δ and A2A Adenosine Receptor Useful in Neurodegenerative Disorders” (Molecules, 2023)

Experiment: Everted gut sac absorption study (duodenum), HPLC-MS
Assay type: in vitro ADME, rat
Conditions: for Papp at 60 min: male, Wistar, rat
Description: Despite these remarkable assumptions, as many known kinase inhibitors are very often unable to cross lipid bilayer membranes, including the blood–brain barrier, and are, therefore, only suitable for non-central nervous system disorders, the ability of A2A/CK1δ double anta-inhibitors to cross the intestinal barrier was investigated. The experiment was performed using the everted gut sac model. The everted sac model is an efficient tool for studying in vitro drug absorption mechanisms, intestinal metabolism of drugs, the role of transporters in drug absorption, and investigating the role of intestinal enzymes during drug transport through the intestine. Compounds 1 and 2 were measured by liquid chromatography-mass spectrometry (LC-MS) in the mucosal and serosal media to provide a complete picture of the transport.
Compounds 1 and 2 were incubated in the duodenum for 60 min at concentrations of 10^−4, 10^−5, and 10^−6 M to evaluate their absorption.
The concentrations 10^−4, 10^−5, and 10^−6 M correspond to 24.6, 2.46, and 0.246 μg/mL of compound 1 and to 37.6, 3.76, and 0.376 μg/mL of compound 2 due to different molecular weights. Glucose was used to verify the integrity and viability of the gut sacs. Intestine sacs were exposed to the concentrations of compounds under study with respect to glucose-treated tissues. After incubation time, fluids from the mucosal (outside the sacs) and serosal (inside the sacs) sides of the rat gut sacs were collected and detected by HPLC-MS analysis. As expected, the amount of the absorbed analytes was concentration dependent even if compound 1 was much better absorbed with respect to compound 2 (Table 2 and Table 3). […] Data are reported as means ± SE (n = 4–5 experiments). The amount of compounds absorbed compared to the initial concentration is statistically different (p < 0.05).
Adult male Wistar rats (250–300 g; 11–12 weeks) were sacrificed by cervical dislocation, the small intestine was removed, and the duodenum segment was isolated and washed in TC199 medium. The intestine was divided into segments of 2–2.5 cm in length (4 for each animal), and each of them was everted on a glass rod of […] in diameter. All segments were closed at one end with a silk thread, filled with fresh oxygenated TC199 medium, and closed at the other end, creating a shut section (sac). Each sac was placed in a 50 mL beaker containing 9.0 mL of medium aerated with oxygen (O2/CO2, 95%:5%) and thermostated at 37 °C. A total of 1 mL of medium containing one of the samples at a concentration of 1 uM, 10 uM, or 100 uM was added. Each concentration was tested in duplicate in three different animals. In order to mimic the intestine peristalsis, gut sacs were incubated in an oscillating water bath (60 cycles/min). After 1h incubation, sacs were removed, washed in saline solution (0.9% NaCl), and wiped with filter paper. The content of each sac (serosal fluid) was collected into a 1.5 mL Eppendorf tube, and the sac was weighed before and after serosal fluid removal to calculate the exact volume contained inside. Samples were centrifuged for 15 min. at 13,500× g, and the supernatant aqueous solution was filtered through a microporous membrane (0.45 μm) for high-performance liquid chromatography (HPLC). The amount of compound 1 or 2 present inside (serosal fluid) and outside (mucosal fluid) of each sac was calculated by HPLC with diode-array detection (HPLC-DAD) analysis.
The obtained samples from the everted sac model experiment were centrifuged for 20 min at 13,500× g rpm, and the supernatant aqueous solution was filtered through a microporous membrane (0.45 μm pore size) for high-performance liquid chromatography-mass spectrometry analysis. LC-MS analysis was carried out using an HPLC Agilent Technologies 1260 Infinity II and a single quadrupole mass spectrometer. […]

[1] = duodenum, 60 min, initial 10^−4 M (24.6 μg/mL compound 1, 37.6 μg/mL compound 2)
[2] = duodenum, 60 min, initial 10^−5 M (2.46 μg/mL compound 1, 3.76 μg/mL compound 2)
[3] = duodenum, 60 min, initial 10^−6 M (0.246 μg/mL compound 1, 0.376 μg/mL compound 2)

SMILES	Papp (×10^−6 cm/s) (10^−4 M, 60 min)	Percentage of Drug Absorption (A%) (10^−4 M, 60 min) [%]	Percentage of Drug Retention (Ad%) (10^−4 M, 60 min) [%]	Papp (×10^−6 cm/s) (10^−5 M, 60 min)	Percentage of Drug Absorption (A%) (10^−5 M, 60 min) [%]	Percentage of Drug Retention (Ad%) (10^−5 M, 60 min) [%]	metabolic conversion in everted gut sac (HPLC analysis) (duodenum, 60 min)	Absorbed Concentration [1] [µg/mL]	Absorbed Concentration [2] [µg/mL]	Absorbed Concentration [3]	Percentage of Drug Absorption (A%) (10^−6 M, 60 min) [%]	Percentage of Drug Retention (Ad%) (10^−6 M, 60 min) [%]	Papp at 60 min (10^−4 M) [×10⁻⁶ cm/s]	Papp at 60 min (10^−5 M) [×10⁻⁶ cm/s]	Papp at 60 min (10^−6 M) [×10⁻⁶ cm/s]
CN(C)c1nc(NCc2nc3ccccc3[nH]2)c2ncn(C3CCCC3)c2n1 [compound 2, N^6-methyl-(2-benzimidazolyl)-2-dimethyamino-9-cyclopentyladenine]	16.1 ×10^−6 cm/s	23	55	10.8 ×10^−6 cm/s	15	66	partially converted into its metabolite, compound 1	8.66	0.576	not detectable	–	–	–	–	–
CN(C)c1nc(N)c2ncn(C3CCCC3)c2n1 [compound 1, 9-Cyclopentyl-N2,N2-dimethyl-9H-purine-2,6-diamine]	–	47	2	–	42	10	–	11.5	1.03	0.059 µg/mL	24	35	33	29.6	16.9
